We go through one compound from US7576103B2, “Tetralin and indane derivatives and uses thereof” (Roche Palo Alto LLC, priority 2004, dated 2009).

For assay [1], the target named is T1, recombinant human 5-HT6 receptor (Homo sapiens, UniProt P50406).
T1 construct: expressed in transfected cells; cell membranes
The assay is described as follows: Radioligand binding, [3H]LSD competition, 5-HT6. The settings on record: membranes of HEK293 cells, pH 7.4, 37° C., read-out: pKi for the 5-HT6 receptor (converted). The method, then:
(§1) The binding activity of compounds of this invention in vitro was determined as follows. Duplicate determinations of 5-HT6 ligand affinity were made by competing for binding of [^3H]LSD in cell membranes derived from HEK293 cells stably expressing recombinant human 5-HT6 receptor. Duplicate determinations of 5-HT2A ligand affinity were made by competing for binding of [^3H]Ketanserin (3-(2-(4-(4-fluorobenzoyl)piperidinol)ethyl)-2,4(1H,3H)-quinazolinedione) in cell membranes derived from CHO-K1 cells stably expressing recombinant human 5-HT2A receptor. Membranes were prepared from HEK 293 cell lines by the method described by Monsma et al., Molecular Pharmacology, Vol. 43 pp. 320-327 (1993), and from CHO-K1 cell lines as described by Bonhaus et al., Br J Pharmacol. June 115(4):622-8 (1995).
(§2) For estimation of affinity at the 5-HT6 receptor, all determinations were made in assay buffer containing 50 mM Tris-HCl, 10 mM MgSO4, 0.5 mM EDTA, 1 mM ascorbic acid, pH 7.4 at 37° C., in a 250 microliter reaction volume. […]
(§3) Assay tubes containing [^3H] […] LSD or [^3H]Ketanserin were determined as radioactive counts per minute using Packard TopCount.
(§4) Displacement of [^3H]LSD or [^3H]Ketanserin from the binding sites was quantified by fitting concentration-binding data to a 4-parameter logistic equation: […]

In assay [2] the target is T2, recombinant human 5-HT2A receptor (Homo sapiens, UniProt P28223).
T2 construct: expressed in transfected cells; cell membranes
T2 sequence (P28223 whole entry): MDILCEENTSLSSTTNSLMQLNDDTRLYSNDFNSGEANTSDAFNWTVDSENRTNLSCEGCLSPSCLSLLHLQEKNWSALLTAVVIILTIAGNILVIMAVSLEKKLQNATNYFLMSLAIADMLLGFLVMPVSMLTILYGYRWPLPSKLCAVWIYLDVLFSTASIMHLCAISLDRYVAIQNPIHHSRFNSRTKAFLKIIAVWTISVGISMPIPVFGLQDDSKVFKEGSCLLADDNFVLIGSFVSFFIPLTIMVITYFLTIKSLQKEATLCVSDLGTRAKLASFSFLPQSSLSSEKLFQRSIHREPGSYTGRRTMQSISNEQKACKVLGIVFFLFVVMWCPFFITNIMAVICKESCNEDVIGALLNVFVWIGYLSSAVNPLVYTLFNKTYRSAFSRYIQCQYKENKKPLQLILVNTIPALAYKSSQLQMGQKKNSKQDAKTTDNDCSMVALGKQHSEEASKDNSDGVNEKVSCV
The assay is described as follows: Radioligand binding, [3H]Ketanserin competition, 5-HT2A. Conditions: membranes of CHO-K1 cells, pH 7.4, 32° C., read-out: pKi for the 5-HT2A receptor (converted). Here is the method:
as §1, §2, §3, §4

Structures are written as SMILES.

T1 sequence (P50406 whole entry): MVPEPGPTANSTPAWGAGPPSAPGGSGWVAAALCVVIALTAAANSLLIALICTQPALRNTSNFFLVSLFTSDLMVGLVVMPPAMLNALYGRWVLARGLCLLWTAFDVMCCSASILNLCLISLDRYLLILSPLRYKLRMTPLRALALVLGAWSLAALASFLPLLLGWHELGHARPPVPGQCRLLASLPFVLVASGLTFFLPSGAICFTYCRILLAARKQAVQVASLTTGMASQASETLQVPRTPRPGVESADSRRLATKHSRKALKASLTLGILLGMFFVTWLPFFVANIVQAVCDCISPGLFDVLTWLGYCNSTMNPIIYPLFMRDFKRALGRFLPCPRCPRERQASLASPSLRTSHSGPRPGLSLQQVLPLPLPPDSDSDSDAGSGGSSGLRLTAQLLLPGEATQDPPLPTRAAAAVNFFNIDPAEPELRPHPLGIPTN

For `CNCCOC1CCCc2cc(S(=O)(=O)c3ccccc3)ccc21` (centres unmarked) [Compound 5, [2-(6-Benzenesulfonyl-1,2,3,4-tetrahydro-naphthalen-1-yloxy)-ethyl]-methyl-amine], the Ki in assay [1] is 1.82 nM; in assay [2], 61.7 nM.
